Data as given in paper PMC7822030, “Hybrid Inhibitors of DNA Gyrase A and B: Design, Synthesis and Evaluation” (Pharmaceutics, 2020).
Read-outs that look alike come from different tables or passages of the source.

Columns and labels:
E. coli BW25113 WT = test: MIC, E. coli BW25113 wild-type; type: cell-based; settings: Escherichia coli, BW25113, read-out: Minimum Inhibitory Concentration E. coli BW# WT
Source text: (§1) E. coli MG1655 originated from the laboratory collection of Dr. Csaba Pál. […] E. coli K-12 BW25113 single-gene knockout mutant lines ΔdapF, ΔmrcB, ΔsurA, ΔacrB and ΔtolC originated form the Keio collection copy owned by the laboratory of Dr. Csaba Pál.
(§2) Cation-adjusted Mueller Hinton II broth (MHBII) was used for growth of the bacteria under standard laboratory conditions, for antimicrobial susceptibility tests, and for selection of resistant variants. To prepare the MHBII broth, 22 g MHBII powder (containing 3 g beef extract, 17.5 g acid hydrolysate of casein, 1.5 g starch; Becton, Dickinson and Co., Franklin Lakes, NJ, USA) was dissolved in 1 L water. MHBII agar was prepared by addition of 14 g agar (Bacto; Molar Chemicals, Halásztelek, Hungary) to 1 L broth.
(§3) Minimum inhibitory concentrations (MICs) were determined using a standard serial broth microdilution technique, according to the Clinical and Laboratory Standards Institute guidelines. […] For Enterococcus sp., the cells were plated in BHI agar plates, and BHI broth was used to determine the MICs. […] Following the dilutions, each well was seeded with 5 × 10^4 bacterial cells. Each measurement was performed in three parallel replicates, and to avoid possible edge effects in the microwell plates, the outside rows (A, H) were filled with sterile medium. Following the inoculations, the plates were covered with the lids and wrapped in polyethylene plastic bags, to minimize evaporation but to allow O2 transfer. […] After incubation, the OD600 of each well was measured using a microplate reader (Synergy 2; Biotek, Winooski, VT, USA).

E. coli MG1655 WT = test: MIC, E. coli MG1655 wild-type with PAβN; type: cell-based, Escherichia coli; settings: for MIC: Escherichia coli, MG1655, read-out: Minimum Inhibitory Concentration E. coli MG# WT, 50 µg/mL PAβN, molar conversion in parentheses; for Minimum Inhibitory Concentration E. coli MG1655 WT: in the presence of 50 µg/mL PAβN
Source text: as §1, §2
as §3, with “USA). […]” for “USA).”

A. baumannii ATCC 17978 = test: MIC broth microdilution, A. baumannii; type: cell-based; settings: Acinetobacter baumannii, ATCC17978, read-out: MIC A. baumannii ATCC #
Source text: as §1, §2, §3

E. coli BW25113 ΔmrcB = type: cell-based, Escherichia coli
Source text: as §1, §2, §3

E. coli BW25113 ΔtolC = type: cell-based, Escherichia coli; settings: for MIC change, ΔtolC mutant versus wild-type E. coli BW25113: improvement of MIC in impaired efflux pump mutant
Source text: as §1, §2, §3

E. coli BW25113 ΔsurA = type: cell-based, Escherichia coli
Source text: as §1, §2, §3

E. coli BW25113 ΔacrB = type: cell-based, Escherichia coli
Source text: as §1, §2, §3

E. coli BW25113 ΔdapF = type: cell-based, Escherichia coli
Source text: as §1, §2, §3

K. pneumoniae ATCC 10031 = test: MIC broth microdilution, K. pneumoniae; type: cell-based; settings: Klebsiella pneumoniae, ATCC10031, read-out: MIC K. pneumoniae ATCC #
Source text: as §1, §2, §3

E. coli topoisomerase IV = target: T1, E. coli topoisomerase IV (Escherichia coli, UniProt P0AFI2+P20083); test: E. coli topoisomerase IV relaxation assay; type: biochemical; settings: for Inhibition of topoisomerase IV (in words): relaxation assay
T1 construct: purchased Inspiralis, Norwich, UK
Experimental: (§4) The assay for determination of the IC50 values was performed according to previously reported procedures.
(§5) Briefly, inhibitory activities were determined using supercoiling (for DNA gyrase) and relaxation (for topoisomerase IV) assay kits (Inspiralis, Norwich, UK) on streptavidin-coated 96-well microtiter plates from Thermo Scientific Pierce (Thermo Fisher Scientific, Waltham, MA, USA). First, the plates were rehydrated with Wash Buffer and the biotinylated oligonucleotide TFO1 was then immobilized. After washing off the unbound oligonucleotide with Wash Buffer, the enzyme assay was performed. Into each well was added 24 µL of mixture containing 6 µL of Assay Buffer (containing ATP), 0.75 µL of relaxed (for E. coli DNA gyrase supercoiling assay) or supercoiled (for E. coli topoisomerase IV relaxation assay) pNO1 plasmid and 17.25 µL of water. Additionally, 3 µL of a solution of the inhibitor in 10% DMSO containing 0.008% Tween 20 and 3 µL of enzyme (1.5 U) in Dilution Buffer were also added to the wells. […] The TF buffer was added to terminate the enzymatic reaction and after additional incubation for 30 min at room temperature, which allowed for triplex formation (biotin–oligonucleotide–plasmid), the unbound plasmid was washed off using TF buffer. Promega Diamond dye in T10 buffer was then added. […] Here, the compounds were diluted using 2-fold serial dilution steps of the given compound. GraphPad Prism 6.0 software was used to calculate the IC50 values, which were determined in at least two independent measurements, and their means are given as the final result. […] Dose-response curves can be found in Supplementary Materials.

P. aeruginosa ATCC 27863 = test: MIC broth microdilution, P. aeruginosa; type: cell-based; settings: Pseudomonas aeruginosa
Source text: as §1, §2, §3

E. coli ATCC 25922 = test: MIC broth microdilution, E. coli ATCC 25922; type: cell-based; settings: Escherichia coli, ATCC25922, read-out: MIC E. coli ATCC #
Source text: as §1, §2, §3

E. coli DNA gyrase = target: T2, E. coli DNA gyrase (Escherichia coli, UniProt P0AES4+P0AES6); test: E. coli DNA gyrase supercoiling assay; type: biochemical
T2 construct: purchased Inspiralis, Norwich, UK
Experimental: as §4, §5

[1] = tested on: E. cloacae spp. cloacae ATCC 13047; test: MIC broth microdilution, E. cloacae; type: cell-based, Enterobacter cloacae; settings: Enterobacter cloacae, ATCC13047, read-out: MIC E. cloacae spp. cloacae ATCC #
[2] = tested on: E. coli MG1655 GyrB R136C; test: microbe, parasite or virus in culture; type: cell-based, Escherichia coli; settings: for MIC: Escherichia coli, MG1655, read-out: Minimum Inhibitory Concentration E. coli MG# GyrB R#C; for Minimum Inhibitory Concentration E. coli MG1655 GyrB R136C: in the presence of 50 µg/mL PAβN
Source text: as §1, §2, §3
(§6) These mutated amino acids are the most common sites for target-based resistance in E. coli.

[3] = tested on: E. coli MG1655 GyrA S83L, D87N ParC S80I, E84G; test: microbe, parasite or virus in culture; type: cell-based, Escherichia coli; settings: for MIC: Escherichia coli, MG1655, read-out: Minimum Inhibitory Concentration E. coli MG# GyrA S83L, D87N ParC S80I, E84G; for Minimum Inhibitory Concentration E. coli MG1655 GyrA S83L, D87N ParC S80I, E84G: in the presence of 50 µg/mL PAβN
Source text: as §1, §2, §3, §6

[4] = molar conversion in parentheses
[5] = ATCC27863, 18 h, read-out: MIC P. aeruginosa ATCC #
[6] = ATCC27863, read-out: MIC P. aeruginosa ATCC #, molar conversion in parentheses, read-out: MIC P. aeruginosa ATCC 27863

SMILES	MIC (E. coli BW25113 WT; [4])	MIC (E. coli BW25113 WT; wild-type)	MIC (E. coli MG1655 WT)	Minimum Inhibitory Concentration E. coli MG1655 WT (E. coli MG1655 WT)	MIC (A. baumannii ATCC 17978; broth microdilution, 18 h)	MIC (A. baumannii ATCC 17978; [4])	Minimum Inhibitory Concentration E. coli BW25113 ΔmrcB (E. coli BW25113 ΔmrcB; impaired cell-wall mutant)	Minimum Inhibitory Concentration E. coli BW25113 ΔmrcB (E. coli BW25113 ΔmrcB; [4])	Minimum Inhibitory Concentration E. coli BW25113 ΔtolC (E. coli BW25113 ΔtolC; efflux pump mutant)	MIC change, ΔtolC mutant versus wild-type E. coli BW25113 (E. coli BW25113 ΔtolC)	Minimum Inhibitory Concentration E. coli BW25113 ΔtolC (E. coli BW25113 ΔtolC; [4])	Minimum Inhibitory Concentration E. coli BW25113 ΔsurA (E. coli BW25113 ΔsurA; impaired cell-wall mutant)	Minimum Inhibitory Concentration E. coli BW25113 ΔsurA (E. coli BW25113 ΔsurA; [4])	Minimum Inhibitory Concentration E. coli BW25113 ΔacrB (E. coli BW25113 ΔacrB; efflux pump mutant)	Minimum Inhibitory Concentration E. coli BW25113 ΔacrB (E. coli BW25113 ΔacrB; [4])	Minimum Inhibitory Concentration E. coli BW25113 ΔdapF (E. coli BW25113 ΔdapF; impaired cell-wall mutant)	Minimum Inhibitory Concentration E. coli BW25113 ΔdapF (E. coli BW25113 ΔdapF; [4])	MIC (K. pneumoniae ATCC 10031; broth microdilution, 18 h)	MIC (K. pneumoniae ATCC 10031; [4])	IC50 (E. coli topoisomerase IV)	also measured
Cc1[nH]c(C(=O)Nc2nc3ccc(C(=O)NCCC(=O)N4CCN(c5cc6c(cc5F)c(=O)c(C(=O)O)cn6C5CC5)CC4)cc3s2)c(Cl)c1Cl [Compound 7b, 1-Cyclopropyl-7-(4-(3-(2-(3,4-dichloro-5-methyl-1H-pyrrole-2-carboxamido)benzo[d]thiazole-6-carboxamido)propanoyl)piperazin-1-yl)-6-fluoro-4-oxo-1,4-dihydroquinoline-3-carboxylic acid]	> 84.8 µM	> 64 µg/mL	1.32 µM	1 µg/mL	> 64 µg/mL	> 84.8 µM	>64 µg/mL	(>84.8 µM)	2 µg/mL	above 32 fold	(2.65 µM)	>64 µg/mL	(>84.8 µM)	>64 µg/mL	(>84.8 µM)	>64 µg/mL	(>84.8 µM)	8 µg/mL	10.6 µM	3100 nM	Inhibition of topoisomerase IV (in words) (E. coli topoisomerase IV): low micromolar; MIC (P. aeruginosa ATCC 27863; [5]): > 64 µg/mL; MIC (P. aeruginosa ATCC 27863; [6]): > 84.8 µM; MIC (E. coli ATCC 25922; broth microdilution, 18 h): > 64 µg/mL; MIC (E. coli ATCC 25922; [4]): > 84.8 µM; IC50 (E. coli DNA gyrase): 130 ± 10 nM; MIC ([1]; broth microdilution, 18 h): > 64 µg/mL; MIC [1, 4]: > 84.8 µM; MIC [2]: 1.32 µM; Minimum Inhibitory Concentration E. coli MG1655 GyrB R136C [2]: 1 µg/mL; MIC [3]: 1.32 µM; Minimum Inhibitory Concentration E. coli MG1655 GyrA S83L, D87N ParC S80I, E84G [3]: 1 µg/mL
Cc1[nH]c(C(=O)Nc2nc3c(OCc4ccccc4)cc(C(=O)NCCOCCN4CCN(c5cc6c(cc5F)c(=O)c(C(=O)O)cn6C5CC5)CC4)cc3s2)c(Cl)c1Cl.Cl [Compound 11b, 1-(2-(2-(4-(Benzyloxy)-2-(3,4-dichloro-5-methyl-1H-pyrrole-2-carboxamido)benzo[d]thiazole-6-carboxamido)ethoxy)ethyl)-4-(3-carboxy-1-cyclopropyl-6-fluoro-4-oxo-1,4-dihydroquinolin-7-yl)piperazin-1-ium chloride]	9.11 µM	8 µg/mL	1.14 µM	1 µg/mL	64 µg/mL	72.9 µM	8 µg/mL	(9.11 µM)	1 µg/mL	8 fold	(1.14 µM)	8 µg/mL	(9.11 µM)	8 µg/mL	(9.11 µM)	8 µg/mL	(9.11 µM)	1 µg/mL	1.14 µM	2500 ± 1100 nM	Inhibition of topoisomerase IV (in words) (E. coli topoisomerase IV): low micromolar; MIC (P. aeruginosa ATCC 27863; [5]): > 64 µg/mL; MIC (P. aeruginosa ATCC 27863; [6]): > 72.9 µM; MIC (E. coli ATCC 25922; broth microdilution, 18 h): 4 µg/mL; MIC (E. coli ATCC 25922; [4]): 4.56 µM; IC50 (E. coli DNA gyrase): 14 ± 9 nM; MIC ([1]; broth microdilution, 18 h): 16 µg/mL; MIC [1, 4]: 18.2 µM; MIC [2]: 2.28 µM; Minimum Inhibitory Concentration E. coli MG1655 GyrB R136C [2]: 2 µg/mL; MIC [3]: 4.56 µM; Minimum Inhibitory Concentration E. coli MG1655 GyrA S83L, D87N ParC S80I, E84G [3]: 4 µg/mL
